Test results: US20140128357A1, “METHODS OF PRODUCING AND USING BRASSINOSTEROIDS TO PROMOTE GROWTH, REPAIR AND MAINTENANCE OF SKELETAL MUSCLE AND SKIN” (Rutgers University, priority 2010, published 2014)

Columns and labels:
[1] = test system: gastrocnemius muscle mRNA (insulin signaling pathway, myogenic transcription factors); test: Gene expression in gastrocnemius muscle, insulin signaling PCR array and RT-PCR; type: in vivo, rat; settings: 60 mg/kg oral 24 d
Protocol: The body weight of each animal and the total amount of food consumed (accounted for spillage) were recorded every 2 d for the duration of the experiment. At the end of the experiment, blood was collected by heart puncture after CO2 inhalation and animal body composition was assessed by DEXA dual-energy X-ray absorptiometry analysis using a Lunar Prodigy Densitometer (GE Healthcare, Waukesha, Wis.). At necropsy, tissue weights were recorded. Tissue samples were collected by snap-freezing in liquid nitrogen and stored at −80° C. for further studies. Total RNA was isolated using Trizol, its quantity and purity were determined using a NanoDrop (Nanodrop Technologies, Wilmington, Del.).
Pooled RNA samples obtained from frozen skeletal muscle (gastrocnemius muscle biopsies of vehicle- (Ctr) and HB-treated animals) were used in a rat insulin signaling PCR array to measure mRNA response to HB. […] However, the magnitude of the differences varied (FIG. 11A).

[2] = Body composition and blood biochemistry, rats on high-protein diet, 24 d oral HB (Protocol 2); type: in vivo, rat; settings: for Bone mineral content / Fat mass / Lean mass: DEXA
Protocol: Six-week-old male Wistar rats (180-220 g, Charles River Laboratories, MA) were housed in individual chambers in a room maintained at a constant room temperature with 12 h light-dark cycle. Animals had free access to food and water. Animals were allowed to adapt to new conditions for 7 d and handling the animals was carried out daily during this time to reduce the stress of physical manipulation. Animals were randomized into groups according to bodyweight 1 d prior to dosing.
Protocol 2: Three groups of Wistar rats (n=8), fed a high-protein diet containing 39.4% protein, 10.0% fat, 4.3% fiber, and 37.0% carbohydrates, resulting in 3.93 kcal/g energy value (#5779 diet, Testdiet/Purina, Richmond, Ind.), were gavaged daily for 24 d with 1 ml of vehicle (5% DMSO in corn oil), 20 or 60 mg/kg HB. All procedures and measurements followed protocol 1.
Blood samples were taken from overnight-fasted animals by heart puncture, collected in EDTA-coated tubes, centrifuged 1,500 g for 20 min, and separated plasma was stored at −80° C. until analysis. Glucose was measured in blood samples using a Lifescan glucometer (Johnson and Johnson, New Brunswick, N.J.). […] Plasma triglycerides and total cholesterol were measured by enzymatic colorimetric assays (Wako Diagnostics, Richmond, Va.). Total testosterone in plasma samples was quantified by an ELISA assay (DRG Diagnostics, Marburg, Germany).

[3] = biological target: T1, rat nuclear androgen receptor (Rattus norvegicus, UniProt P15207); test: Rat androgen receptor binding, [3H]-mibolerone displacement; settings: 0.01 μM up to 10 μM
T1 construct: MDS Pharma Services (Taiwan), the contract laboratory that ran the assay
T1 sequence (P15207 1-902): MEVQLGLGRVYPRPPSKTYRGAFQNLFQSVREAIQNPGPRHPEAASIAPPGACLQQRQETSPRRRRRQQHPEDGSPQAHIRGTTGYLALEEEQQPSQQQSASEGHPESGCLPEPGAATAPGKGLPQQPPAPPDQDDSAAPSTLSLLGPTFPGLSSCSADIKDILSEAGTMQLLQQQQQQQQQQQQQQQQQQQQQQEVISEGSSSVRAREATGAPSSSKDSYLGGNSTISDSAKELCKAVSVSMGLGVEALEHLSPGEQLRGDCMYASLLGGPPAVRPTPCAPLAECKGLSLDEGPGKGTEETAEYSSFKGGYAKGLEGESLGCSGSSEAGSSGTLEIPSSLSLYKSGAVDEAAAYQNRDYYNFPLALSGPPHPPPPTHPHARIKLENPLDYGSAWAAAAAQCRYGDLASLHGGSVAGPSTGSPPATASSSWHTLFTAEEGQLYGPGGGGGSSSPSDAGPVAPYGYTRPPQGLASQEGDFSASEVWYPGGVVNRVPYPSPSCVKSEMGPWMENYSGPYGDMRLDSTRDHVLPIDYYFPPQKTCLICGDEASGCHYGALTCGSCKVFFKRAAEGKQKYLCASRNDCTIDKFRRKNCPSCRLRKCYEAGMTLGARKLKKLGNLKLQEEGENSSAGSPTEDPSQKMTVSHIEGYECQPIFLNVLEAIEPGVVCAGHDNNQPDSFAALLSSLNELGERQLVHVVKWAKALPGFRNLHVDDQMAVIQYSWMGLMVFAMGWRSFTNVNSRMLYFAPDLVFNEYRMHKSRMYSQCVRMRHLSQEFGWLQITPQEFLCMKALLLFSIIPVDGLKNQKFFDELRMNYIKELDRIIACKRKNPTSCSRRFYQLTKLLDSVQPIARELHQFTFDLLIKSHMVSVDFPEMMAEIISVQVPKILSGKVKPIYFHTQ
Protocol: Rat androgen receptor binding assays were performed by MDS Pharma Services (Taiwan) as described elsewhere (Chang et al., J. Steroid Biochem. 27:123-131, 1987), incorporated herein by reference.

3T3 mouse fibroblasts = test: Cell proliferation, BrdU assay; type: cell-based; settings: 24 h
Protocol: 3T3 fibroblasts were seeded in a 96-well flat bottom plate at a density of 1×10^4 cells/well. Cell viability was measured by an MTT (3-(4,5-Dimethylthiazol-2-yl)-2,5-diphenyltetrazolium bromide) assay in triplicate (0.3-30 μM of test substance for […]) essentially as described by Mosmann (J. Immunol. Methods 65, 55-63, 1983) and quantified spectrophotometrically at 550 nm using a microplate reader (Molecular Devices, Sunnyvale, Calif.). […] For cell proliferation studies, cells were treated in triplicate with 0.1-10 μM of test substance for 24 h and assayed using a BrdU (5-bromo-2′-deoxyuridine) kit from Amersham (Uppsala, Sweden).

[4] = test system: collagen and elastin in skin; test: Collagen and elastin in skin of rats given oral HB (Example 16); type: in vivo, rat; settings: 20 and 60 mg/kg oral daily 24 d, written in present tense
Protocol: To evaluate the potential anabolic effects of plant brassinosteroids on the skin of animals, 20 and 60 mg/kg body weight of HB (HB20 and HB60, respectively) are orally administered daily to healthy rats fed normal diet for 24 d.
Collagen and elastin production are measured in the skin of animals treated with HB versus their control counterparts. Protein degradation of collagen and elastin is measured in the skin of animals treated with HB versus their control counterparts, e.g., by collagen or elastin ELISAs. The amount of collagen and elastin protein present in the skin of animals treated with HB is measured versus their control counterparts.

[5] = pooled gastrocnemius RNA, PCR array

With CC[C@@H](C(C)C)[C@H](O)[C@@H](O)[C@@H](C)[C@H]1CC[C@H]2[C@@H]3COC(=O)[C@H]4C[C@H](O)[C@H](O)C[C@]4(C)[C@H]3CC[C@]12C [Compound 1, (22S,23S,24S)-2α,3α,22,23-tetrahydroxy-24 ethyl-β-homo-7-oxo-5α-cholestane-6-one] the “expression of EIF2B1” value [1] was “No changes”, the “MYF5 mRNA upregulation” value ([1]; RT-PCR (FIG. 11C)) was 1.3 fold and the “MYF6 mRNA upregulation” value ([1]; RT-PCR (FIG. 11C)) was 1.3 fold. For the same compound, the “MYOD1 mRNA upregulation” value ([1]; RT-PCR (FIG. 11C)) was 2.1 fold, the “MYOG (myogenin) mRNA upregulation” value ([1]; RT-PCR (FIG. 11C)) was 1.7 fold and the “ADRA1D mRNA upregulation” value [1, 5] was 6.5 fold. The “FBP2 mRNA upregulation” value [1, 5] was 4.5 fold, the “IGF-2 mRNA upregulation” value [1, 5] was 1.4 fold and the “IGFBP1 mRNA upregulation” value [1, 5] was 2.5 fold. For the same compound, the “SREBP-1 mRNA upregulation” value [1, 5] was 2.5 fold, the Body weight ([2]; 20 mg/kg oral daily 24 d) was 337.6 ± 6.4 g and the Body weight gain ([2]; 20 mg/kg oral daily 24 d) was 98.3 ± 5.2 g. It also gave a Gastrocnemius muscle ([2]; 20 mg/kg oral daily 24 d) of 1.98 ± 0.01 g, a Bone mineral content ([2]; 20 mg/kg oral daily 24 d) of 7.5 ± 0.2 g and a Fat mass ([2]; 20 mg/kg oral daily 24 d) of 68.6 ± 3.1 g. For the same compound, the Lean mass ([2]; 20 mg/kg oral daily 24 d) was 246.8 ± 7.4 g, the Body weight ([2]; 60 mg/kg oral daily 24 d) was 335.8 ± 5.1 g and the Body weight gain ([2]; 60 mg/kg oral daily 24 d) was 91.1 ± 3.2 g. It also gave a Gastrocnemius muscle ([2]; 60 mg/kg oral daily 24 d) of 2.17 ± 0.03 g, a Bone mineral content ([2]; 60 mg/kg oral daily 24 d) of 7.4 ± 0.1 g and a Fat mass ([2]; 60 mg/kg oral daily 24 d) of 61.2 ± 3.8 g. The Lean mass ([2]; 60 mg/kg oral daily 24 d) was 258.6 ± 2.7 g, the “binding to androgen receptor” value [3] was “no significant binding” and the “Cell proliferation at 5 μM, % of control” value (3T3 mouse fibroblasts) was 37.7 ± 3.4 %. The “collagen and elastin production in skin” value [4] was “increases collagen and elastin production in skin”.
